Earlier results as cited in patent EP4488277A1, “NOVEL BISPIDINE-BASED METAL CHELATING LIGANDS DISPLAYING GOOD RELAXIVITY” (Université de Strasbourg, priority 2023, dated 2025).

Details: pH of 7.4, 60 MHz, 25°C

relaxivity r1: 3.7 mM⁻¹ s⁻¹
SMILES: CNC[C@H](O)[C@@H](O)[C@H](O)[C@H](O)CO.O=C([O-])CN1CCN(CC(=O)[O-])CCN(CC(=O)O)CCN(CC(=O)[O-])CC1.[Gd+3] [Dotarem®, gadoterate meglumine]
